Measured values taken from ChEMBL document CHEMBL3885881, “DrugMatrix”.

Species: Rattus norvegicus
Assay: DrugMatrix - Regimen: Daily Repeat
Format: toxicity, organism-based, Sprague-Dawley
Parameters: regimen Daily Repeat, gender Male, age 6-8 weeks
Settings: in vivo, po, 100 mg/kg, route oral GAVAGE, […]; for ABSOLUTE BASOPHIL / ABSOLUTE EOSINOPHIL / ABSOLUTE LYMPHOCYTE / ABSOLUTE MONOCYTE / ABSOLUTE SEGMENTED NEUTROPHIL / BASOPHIL / EOSINOPHIL / ERYTHROCYTE COUNT / HEMATOCRIT / HEMOGLOBIN / LEUKOCYTE COUNT / LYMPHOCYTE / MEAN CORPUSCULAR HEMOGLOBIN / MEAN CORPUSCULAR HEMOGLOBIN CONCENTRATION / MEAN CORPUSCULAR VOLUME / MONOCYTE / NEUTROPHIL / NUCLEATED RED BLOOD CELLS / PLATELET COUNT: tissue Blood; for ALANINE AMINOTRANSFERASE / ALBUMIN / ALKALINE PHOSPHATASE / ASPARTATE AMINOTRANSFERASE / BLOOD UREA NITROGEN / CARBON DIOXIDE / CHLORIDE / CHOLESTEROL / CREATINE PHOSPHOKINASE / CREATININE / GLUCOSE / LACTATE DEHYDROGENASE / LIPASE / PHOSPHORUS / POTASSIUM / SODIUM / TOTAL BILIRUBIN / TOTAL PROTEIN / URIC ACID: tissue Plasma
[1] = 72 h, dose level Low, time 3 day
[2] = 120 h, dose level High, time 5 day

CC(C)(Oc1ccc(CCNC(=O)c2ccc(Cl)cc2)cc1)C(=O)O [BEZAFIBRATE]
ABSOLUTE BASOPHIL [1]: 0 CELLS/uL | ABSOLUTE EOSINOPHIL [1]: 180.5 CELLS/uL | ABSOLUTE LYMPHOCYTE [1]: 13739.67 CELLS/uL | ABSOLUTE MONOCYTE [1]: 378 CELLS/uL | ABSOLUTE SEGMENTED NEUTROPHIL [1]: 1401.83 CELLS/uL | BASOPHIL [1]: 0% | EOSINOPHIL [1]: 1.17% | ERYTHROCYTE COUNT [1]: 5.45 x10E6/uL | HEMATOCRIT [1]: 33.9% | HEMOGLOBIN [1]: 13.37 G/DL | LEUKOCYTE COUNT [1]: 15.7 x10E3/uL | LYMPHOCYTE [1]: 87.33% | MEAN CORPUSCULAR HEMOGLOBIN [1]: 24.55 pg | MEAN CORPUSCULAR HEMOGLOBIN CONCENTRATION [1]: 39.42 G/DL | MEAN CORPUSCULAR VOLUME [1]: 62.22 fL | MONOCYTE [1]: 2.33% | NEUTROPHIL [1]: 9.17% | NUCLEATED RED BLOOD CELLS [1]: 0 /100WBC | PLATELET COUNT [1]: 1134.83 x10E3/uL | ALANINE AMINOTRANSFERASE [1]: 55.83 u/L | ALBUMIN [1]: 4.3 G/DL | ALKALINE PHOSPHATASE [1]: 373.17 u/L | ASPARTATE AMINOTRANSFERASE [1]: 81 u/L | BLOOD UREA NITROGEN [1]: 13.33 mg/dL | CARBON DIOXIDE [1]: 28.33 mmol/L | CHLORIDE [1]: 103.17 MEQ/L | CHOLESTEROL [1]: 50.33 mg/dL | CREATINE PHOSPHOKINASE [1]: 275.67 u/L | CREATININE [1]: 0.14 mg/dL | GLUCOSE [1]: 153.33 mg/dL | LACTATE DEHYDROGENASE [1]: 111.33 u/L | LIPASE [1]: 9.67 u/L | PHOSPHORUS [1]: 10.52 mg/dL | POTASSIUM [1]: 6.12 MEQ/L | SODIUM [1]: 143.38 MEQ/L | TOTAL BILIRUBIN [1]: 0.17 mg/dL | TOTAL PROTEIN [1]: 5.68 G/DL | URIC ACID [1]: 1.27 mg/dL | BASOPHIL [2]: 0.3% | EOSINOPHIL [2]: 0.42% | ERYTHROCYTE COUNT [2]: 6.75 x10E6/uL | HEMATOCRIT [2]: 45.06% | HEMOGLOBIN [2]: 14.3 G/DL | LEUKOCYTE COUNT [2]: 9.46 x10E3/uL | LYMPHOCYTE [2]: 82.9% | MEAN CORPUSCULAR HEMOGLOBIN [2]: 21.18 pg | MEAN CORPUSCULAR HEMOGLOBIN CONCENTRATION [2]: 31.76 G/DL | MEAN CORPUSCULAR VOLUME [2]: 66.76 fL | MONOCYTE [2]: 2.08% | NEUTROPHIL [2]: 12.9% | PLATELET COUNT [2]: 1359.2 x10E3/uL | ALANINE AMINOTRANSFERASE [2]: 30.4 u/L | ALBUMIN [2]: 3.86 G/DL | ALKALINE PHOSPHATASE [2]: 393.2 u/L | ASPARTATE AMINOTRANSFERASE [2]: 76.8 u/L | BLOOD UREA NITROGEN [2]: 8 mg/dL | CHLORIDE [2]: 110.2 MEQ/L | CHOLESTEROL [2]: 53.8 mg/dL | CREATINE PHOSPHOKINASE [2]: 309.2 u/L | CREATININE [2]: 0.58 mg/dL | GLUCOSE [2]: 111.8 mg/dL | PHOSPHORUS [2]: 13.26 mg/dL | POTASSIUM [2]: 5.98 MEQ/L | SODIUM [2]: 150.8 MEQ/L | TOTAL BILIRUBIN [2]: 0.2 mg/dL | TOTAL PROTEIN [2]: 5.94 G/DL | BASOPHIL (dose level High, time 28 day): 0.53% | EOSINOPHIL (dose level High, time 28 day): 0.56% | ERYTHROCYTE COUNT (dose level High, time 28 day): 7.67 x10E6/uL | HEMATOCRIT (dose level High, time 28 day): 46.81% | HEMOGLOBIN (dose level High, time 28 day): 15.51 G/DL | LEUKOCYTE COUNT (dose level High, time 28 day): 10.2 x10E3/uL | LYMPHOCYTE (dose level High, time 28 day): 83.76% | MEAN CORPUSCULAR HEMOGLOBIN (dose level High, time 28 day): 20.22 pg | MEAN CORPUSCULAR HEMOGLOBIN CONCENTRATION (dose level High, time 28 day): 33.13 G/DL | MEAN CORPUSCULAR VOLUME (dose level High, time 28 day): 61.05 fL | MONOCYTE (dose level High, time 28 day): 1.65% | NEUTROPHIL (dose level High, time 28 day): 12.36% | PLATELET COUNT (dose level High, time 28 day): 1339.5 x10E3/uL | ABSOLUTE BASOPHIL (dose level Low, time 7 day): 0 CELLS/uL | ABSOLUTE EOSINOPHIL (dose level Low, time 7 day): 36.5 CELLS/uL | ABSOLUTE LYMPHOCYTE (dose level Low, time 7 day): 7716 CELLS/uL | ABSOLUTE MONOCYTE (dose level Low, time 7 day): 109.33 CELLS/uL | ABSOLUTE SEGMENTED NEUTROPHIL (dose level Low, time 7 day): 821.5 CELLS/uL | BASOPHIL (dose level Low, time 7 day): 0% | EOSINOPHIL (dose level Low, time 7 day): 0.5% | ERYTHROCYTE COUNT (dose level Low, time 7 day): 5.31 x10E6/uL | HEMATOCRIT (dose level Low, time 7 day): 33.28% | HEMOGLOBIN (dose level Low, time 7 day): 13.1 G/DL | LEUKOCYTE COUNT (dose level Low, time 7 day): 8.68 x10E3/uL | LYMPHOCYTE (dose level Low, time 7 day): 88.67% | MEAN CORPUSCULAR HEMOGLOBIN (dose level Low, time 7 day): 24.67 pg | MEAN CORPUSCULAR HEMOGLOBIN CONCENTRATION (dose level Low, time 7 day): 39.37 G/DL | MEAN CORPUSCULAR VOLUME (dose level Low, time 7 day): 62.68 fL | MONOCYTE (dose level Low, time 7 day): 1.33% | NEUTROPHIL (dose level Low, time 7 day): 9.5% | NUCLEATED RED BLOOD CELLS (dose level Low, time 7 day): 0 /100WBC | PLATELET COUNT (dose level Low, time 7 day): 1167.33 x10E3/uL | ALANINE AMINOTRANSFERASE (dose level High, time 28 day): 33.6 u/L | ALBUMIN (dose level High, time 28 day): 4.04 G/DL | ALKALINE PHOSPHATASE (dose level High, time 28 day): 358.2 u/L | ASPARTATE AMINOTRANSFERASE (dose level High, time 28 day): 65.4 u/L | BLOOD UREA NITROGEN (dose level High, time 28 day): 15.6 mg/dL | CHLORIDE (dose level High, time 28 day): 108.6 MEQ/L | CHOLESTEROL (dose level High, time 28 day): 43.2 mg/dL | CREATINE PHOSPHOKINASE (dose level High, time 28 day): 130.9 u/L | CREATININE (dose level High, time 28 day): 0.51 mg/dL | GLUCOSE (dose level High, time 28 day): 147.9 mg/dL | PHOSPHORUS (dose level High, time 28 day): 11.62 mg/dL | POTASSIUM (dose level High, time 28 day): 6.83 MEQ/L | SODIUM (dose level High, time 28 day): 152.6 MEQ/L | TOTAL BILIRUBIN (dose level High, time 28 day): 0.2 mg/dL | TOTAL PROTEIN (dose level High, time 28 day): 6.41 G/DL | ALANINE AMINOTRANSFERASE (dose level Low, time 7 day): 52.17 u/L | ALBUMIN (dose level Low, time 7 day): 4.67 G/DL | ALKALINE PHOSPHATASE (dose level Low, time 7 day): 346.67 u/L | ASPARTATE AMINOTRANSFERASE (dose level Low, time 7 day): 68.17 u/L | BLOOD UREA NITROGEN (dose level Low, time 7 day): 17.67 mg/dL | CARBON DIOXIDE (dose level Low, time 7 day): 30.83 mmol/L | CHLORIDE (dose level Low, time 7 day): 102.83 MEQ/L | CHOLESTEROL (dose level Low, time 7 day): 57.83 mg/dL | CREATINE PHOSPHOKINASE (dose level Low, time 7 day): 307.17 u/L | CREATININE (dose level Low, time 7 day): 0.24 mg/dL | GLUCOSE (dose level Low, time 7 day): 145.67 mg/dL | LACTATE DEHYDROGENASE (dose level Low, time 7 day): 85.5 u/L | LIPASE (dose level Low, time 7 day): 9.33 u/L | PHOSPHORUS (dose level Low, time 7 day): 11.1 mg/dL | POTASSIUM (dose level Low, time 7 day): 5.85 MEQ/L | SODIUM (dose level Low, time 7 day): 143.98 MEQ/L | TOTAL BILIRUBIN (dose level Low, time 7 day): 0.1 mg/dL | TOTAL PROTEIN (dose level Low, time 7 day): 6.2 G/DL | URIC ACID (dose level Low, time 7 day): 0.62 mg/dL
